These compounds were tested on NIH/3T3 cells (assay: Cell death protective effect in fibroblasts against Erastin, glutamate and RSL3 (LDH)). Details: NIH/3T3, Erastin 3 μM, compound 0.1 μM, 24 hours.
Assay type: cell-based, mouse
Procedure: (§1) In order to identify the protective effect on fibroblasts, NIH/3T3 cells were divided into 96-well plates by 8×10^3 and cultured for 18 to 24 hours. The compounds of Examples were diluted to final concentrations of 0.1 and 1 μM, treated in each well, and incubated for 15 to 20 minutes. Erastin, glutamate, and RSL3 were treated to have final concentrations of 3 μM, 30 mM, and 3 μM, respectively, and cultured for 24 hours. In order to identify the protective effect of each compound, the degree of LDH extracellular secretion was measured using cytotoxicity LDH assay kit [Dojindo; CK12]. Briefly, at the time when the treatment of the cells with Erastin, glutamate, and RSL3 for 24 hours is completed, the supernatants containing the cells are taken by 70 μL and transferred to a new 96-well plate. The assay buffer included in the kit is added in an amount of 70 μL/well (the same amount as the sample) thereto, and then the plate is wrapped with a foil and the reaction is performed at room temperature for 15 minutes. After observing the changed color of the sample, the stop solution was added in an amount of 35 μL/well thereto, and then the 00 inhibition value was calculated by measuring the absorbance value at a wavelength of 490 nm using an iD3 spectrophotometer.

SMILES | inhibition (%)
COCCOCc1cc(NC2CCNCC2)c2[nH]c(-c3ccccc3)cc2c1 [Example 64, 5-((2-methoxyethoxy)methyl)-2-phenyl-N-(piperidin-4-yl)-1H-indol-7-amine] | 99%

Same assay, conditions: NIH/3T3, Erastin 3 μM, compound 1.0 μM, 24 hours

SMILES | inhibition (%)
COCCOCc1cc(NC2CCNCC2)c2[nH]c(-c3ccccc3)cc2c1 [Example 64, 5-((2-methoxyethoxy)methyl)-2-phenyl-N-(piperidin-4-yl)-1H-indol-7-amine] | 100%

Same assay, conditions: NIH/3T3, Glutamate 30 mM, compound 0.1 μM, 24 hours

SMILES | inhibition (%)
COCCOCc1cc(NC2CCNCC2)c2[nH]c(-c3ccccc3)cc2c1 [Example 64, 5-((2-methoxyethoxy)methyl)-2-phenyl-N-(piperidin-4-yl)-1H-indol-7-amine] | 99%

Same assay, conditions: NIH/3T3, Glutamate 30 mM, compound 1.0 μM, 24 hours

SMILES | inhibition (%)
COCCOCc1cc(NC2CCNCC2)c2[nH]c(-c3ccccc3)cc2c1 [Example 64, 5-((2-methoxyethoxy)methyl)-2-phenyl-N-(piperidin-4-yl)-1H-indol-7-amine] | 100%

Same assay, conditions: NIH/3T3, RSL3 3 μM, compound 0.1 μM, 24 hours

SMILES | inhibition (%)
COCCOCc1cc(NC2CCNCC2)c2[nH]c(-c3ccccc3)cc2c1 [Example 64, 5-((2-methoxyethoxy)methyl)-2-phenyl-N-(piperidin-4-yl)-1H-indol-7-amine] | 100%

Same assay, conditions: NIH/3T3, RSL3 3 μM, compound 1.0 μM, 24 hours

SMILES | inhibition (%)
COCCOCc1cc(NC2CCNCC2)c2[nH]c(-c3ccccc3)cc2c1 [Example 64, 5-((2-methoxyethoxy)methyl)-2-phenyl-N-(piperidin-4-yl)-1H-indol-7-amine] | 100%

Each compound was assayed on PC-12 cells (assay: Cell death protective effect in adrenal cells against Erastin, glutamate and RSL3 (LDH)). Details: PC-12, Erastin 1 μM, compound 0.1 μM, 24 hours.
Assay type: cell-based, rat
Procedure: In order to identify the protective effect on adrenal cells, PC-12 cells were divided into 96-well plates by 1×10^4 and cultured for 18 to 24 hours. The compounds of Examples were diluted to final concentrations of 0.1 and 1.0 μM in Erastin, 0.01 and 0.1 in glutamate, and 0.3 and 3.0 μM in RSL3, treated in each well, and incubated for 15 to 20 minutes. Erastin, glutamate, and RSL3 were treated to have final concentrations of 1 μM, 10 mM, and 0.3 μM, respectively, and cultured for 24 hours. In order to identify the protective effect of each compound, the degree of LDH extracellular secretion was measured using cytotoxicity LDH assay kit [Dojindo; CK12]. Briefly, at the time when the treatment of the cells with Erastin, glutamate, and RSL3 for 24 hours is completed, the supernatants containing the cells are taken by 70 μL and transferred to a new 96-well plate. The assay buffer included in the kit is added in an amount of 70 μL/well (the same amount as the sample) thereto, and then the plate is wrapped with a foil and the reaction is performed at room temperature for 15 minutes. After observing the changed color of the sample, the stop solution was added in an amount of 35 µL/well thereto, and then the 0 inhibition value was calculated by measuring the absorbance value at a wavelength of 490 nm using an iD3 spectrophotometer.

SMILES | inhibition (%)
COCCOCc1cc(NC2CCNCC2)c2[nH]c(-c3ccccc3)cc2c1 [Example 64, 5-((2-methoxyethoxy)methyl)-2-phenyl-N-(piperidin-4-yl)-1H-indol-7-amine] | 100%

Same assay, conditions: PC-12, Erastin 1 μM, compound 1.0 μM, 24 hours

SMILES | inhibition (%)
COCCOCc1cc(NC2CCNCC2)c2[nH]c(-c3ccccc3)cc2c1 [Example 64, 5-((2-methoxyethoxy)methyl)-2-phenyl-N-(piperidin-4-yl)-1H-indol-7-amine] | 100%

Same assay, conditions: PC-12, Glutamate 10 mM, compound 0.01 μM, 24 hours

SMILES | inhibition (%)
COCCOCc1cc(NC2CCNCC2)c2[nH]c(-c3ccccc3)cc2c1 [Example 64, 5-((2-methoxyethoxy)methyl)-2-phenyl-N-(piperidin-4-yl)-1H-indol-7-amine] | 39%

Same assay, conditions: PC-12, Glutamate 10 mM, compound 0.1 μM, 24 hours

SMILES | inhibition (%)
COCCOCc1cc(NC2CCNCC2)c2[nH]c(-c3ccccc3)cc2c1 [Example 64, 5-((2-methoxyethoxy)methyl)-2-phenyl-N-(piperidin-4-yl)-1H-indol-7-amine] | 97%

Same assay, conditions: PC-12, RSL3 0.3 μM, compound 0.3 μM, 24 hours

SMILES | inhibition (%)
COCCOCc1cc(NC2CCNCC2)c2[nH]c(-c3ccccc3)cc2c1 [Example 64, 5-((2-methoxyethoxy)methyl)-2-phenyl-N-(piperidin-4-yl)-1H-indol-7-amine] | 78%

Same assay, conditions: PC-12, RSL3 0.3 μM, compound 3.0 μM, 24 hours

SMILES | inhibition (%)
COCCOCc1cc(NC2CCNCC2)c2[nH]c(-c3ccccc3)cc2c1 [Example 64, 5-((2-methoxyethoxy)methyl)-2-phenyl-N-(piperidin-4-yl)-1H-indol-7-amine] | 100%

What follows are compounds tested on H9C2 cells (assay: Cell death protective effect in cardiac myocytes against Erastin, glutamate and RSL3 (LDH)). Details: H9C2, Erastin 1 μM, compound 0.1 μM, 24 hours.
Assay type: cell-based, rat
Procedure: as §1, with “on cardiac cells, H9C2” for “on fibroblasts, NIH/3T3”, “by 1×10^4” for “by 8×10^3”, “of 1” for “of 3”, “μM, 25” for “μM, 30”, “and 0.5” for “and 3”, “minutes.” for “minutes. After observing the changed color of the sample, the stop solution was added in an amount of 35 μL/well thereto, and then the 00 inhibition value was calculated by measuring the absorbance value at a wavelength of 490 nm using an iD3 spectrophotometer.”

SMILES | inhibition (%)
COCCOCc1cc(NC2CCNCC2)c2[nH]c(-c3ccccc3)cc2c1 [Example 64, 5-((2-methoxyethoxy)methyl)-2-phenyl-N-(piperidin-4-yl)-1H-indol-7-amine] | 100%

Same assay, conditions: H9C2, Erastin 1 μM, compound 1.0 μM, 24 hours

SMILES | inhibition (%)
COCCOCc1cc(NC2CCNCC2)c2[nH]c(-c3ccccc3)cc2c1 [Example 64, 5-((2-methoxyethoxy)methyl)-2-phenyl-N-(piperidin-4-yl)-1H-indol-7-amine] | 100%

Same assay, conditions: H9C2, Glutamate 25 mM, compound 0.1 μM, 24 hours

SMILES | inhibition (%)
COCCOCc1cc(NC2CCNCC2)c2[nH]c(-c3ccccc3)cc2c1 [Example 64, 5-((2-methoxyethoxy)methyl)-2-phenyl-N-(piperidin-4-yl)-1H-indol-7-amine] | 97%

Same assay, conditions: H9C2, Glutamate 25 mM, compound 1.0 μM, 24 hours

SMILES | inhibition (%)
COCCOCc1cc(NC2CCNCC2)c2[nH]c(-c3ccccc3)cc2c1 [Example 64, 5-((2-methoxyethoxy)methyl)-2-phenyl-N-(piperidin-4-yl)-1H-indol-7-amine] | 97%

Same assay, conditions: H9C2, RSL3 0.5 μM, compound 0.1 μM, 24 hours

SMILES | inhibition (%)
COCCOCc1cc(NC2CCNCC2)c2[nH]c(-c3ccccc3)cc2c1 [Example 64, 5-((2-methoxyethoxy)methyl)-2-phenyl-N-(piperidin-4-yl)-1H-indol-7-amine] | 90%

Same assay, conditions: H9C2, RSL3 0.5 μM, compound 1.0 μM, 24 hours

SMILES | inhibition (%)
COCCOCc1cc(NC2CCNCC2)c2[nH]c(-c3ccccc3)cc2c1 [Example 64, 5-((2-methoxyethoxy)methyl)-2-phenyl-N-(piperidin-4-yl)-1H-indol-7-amine] | 95%

These compounds were tested on NRK-49F cells (assay: Cell death protective effect in renal fibroblasts against Erastin, glutamate and RSL3 (LDH)). Details: Erastin 3 μM, compound 0.1 μM, 24 hours.
Assay type: cell-based, rat
Procedure: In order to identify the protective effect on renal fibroblasts, NRK-49F cells were divided into 96-well plates by 1×10^4 and cultured for 18 to 24 hours. The compounds of Examples were diluted to final concentrations of 0.1 and 1 μM, treated in each well, and incubated for 15 to 20 minutes. Erastin, glutamate, and RSL3 were treated to have final concentrations of 3 μM, 75 mM, and 3 μM, respectively, and cultured for 24 hours. In order to identify the protective effect of each compound, the degree of LDH extracellular secretion was measured using cytotoxicity LDH assay kit [Dojindo; CK12]. Briefly, at the time when the treatment of the cells with Erastin, glutamate, and RSL3 for 24 hours is completed, the supernatants containing the cells are taken by 70 μl and transferred to a new 96-well plate. The assay buffer included in the kit is added in an amount of 70 μL/well (the same amount as the sample) thereto, and then the plate is wrapped with a foil and the reaction is performed at room temperature for 15 minutes.

SMILES | inhibition (%)
COCCOCc1cc(NC2CCNCC2)c2[nH]c(-c3ccccc3)cc2c1 [Example 64, 5-((2-methoxyethoxy)methyl)-2-phenyl-N-(piperidin-4-yl)-1H-indol-7-amine] | 100%

Same assay, conditions: Erastin 3 μM, compound 1.0 μM, 24 hours

SMILES | inhibition (%)
COCCOCc1cc(NC2CCNCC2)c2[nH]c(-c3ccccc3)cc2c1 [Example 64, 5-((2-methoxyethoxy)methyl)-2-phenyl-N-(piperidin-4-yl)-1H-indol-7-amine] | 100%

Same assay, conditions: Glutamate 75 mM, compound 0.1 μM, 24 hours

SMILES | inhibition (%)
COCCOCc1cc(NC2CCNCC2)c2[nH]c(-c3ccccc3)cc2c1 [Example 64, 5-((2-methoxyethoxy)methyl)-2-phenyl-N-(piperidin-4-yl)-1H-indol-7-amine] | 7%

Same assay, conditions: Glutamate 75 mM, compound 1.0 μM, 24 hours

SMILES | inhibition (%)
COCCOCc1cc(NC2CCNCC2)c2[nH]c(-c3ccccc3)cc2c1 [Example 64, 5-((2-methoxyethoxy)methyl)-2-phenyl-N-(piperidin-4-yl)-1H-indol-7-amine] | 99%

Same assay, conditions: RSL3 3 μM, compound 0.1 μM, 24 hours

SMILES | inhibition (%)
COCCOCc1cc(NC2CCNCC2)c2[nH]c(-c3ccccc3)cc2c1 [Example 64, 5-((2-methoxyethoxy)methyl)-2-phenyl-N-(piperidin-4-yl)-1H-indol-7-amine] | 70%

Same assay, conditions: RSL3 3 μM, compound 1.0 μM, 24 hours

SMILES | inhibition (%)
COCCOCc1cc(NC2CCNCC2)c2[nH]c(-c3ccccc3)cc2c1 [Example 64, 5-((2-methoxyethoxy)methyl)-2-phenyl-N-(piperidin-4-yl)-1H-indol-7-amine] | 100%

— patent US20250122155A1, “NOVEL INDOLE DERIVATIVE, PHARMACEUTICAL COMPOSITION COMPRISING SAME, AND USE THEREOF” (MITOIMMUNE THERAPEUTICS INC., priority 2021, published 2025)
